Each structure is given as a SMILES string.

The test has as its system AZGP1. Briefly: Assessment of gene modulation in normal human epidermal melanocytes (NHEM), RT-qPCR on mRNA (PCR array mQPA H-Melanocyte-64). It counts as cell-based. The settings on record: ascorbyl-2-glucoside 1 mg/ml. On the procedure: Normal human epidermal melanocytes were cultivated for 24 hours. […] Cells were cultivated for additional 72 hours. All experimental conditions were performed in triplicate. At the end of the cultivation, the cells were harvested and washed with phosphate buffered saline (PBS) solution and immediately frozen at -80 °C. The expression of selected markers was analyzed using RT-qPCR method on mRNA extracted from cells layer for each treatment condition. The differential expression analysis was performed by PCR arrays of the screening format "mQPA H-Melanocyte-64", which focuses on 64 genes selected for their importance in pigmentation and melanocyte biology. Total RNA was extracted from each sample using TRI-Reagent®. The amount and quality of the RNA was evaluated using a lab-on-a-chip Bioanalyzer (Agilent technologies). Potential contaminants traces of DNA were removed […] The incorporation of fluorescence in amplified DNA was measured continuously during the PCR cycles. […] The value selected for RE calculations is the "output point" (Ct) of the fluorescence curve. For a given marker, the highest is the cycle number; the lowest, is the mRNA quantity. The RE value is expressed in arbitrary units (AU) according to the equation: (((1)/(2)))^NC x 10^6 [formula] Where NC is the number of cycles.
(In qPCR the cycle at which signal appears reflects the starting amount.)

`O=C1O[C@H]([C@@H](O)CO)C(O)=C1O[C@H]1O[C@H](CO)[C@@H](O)[C@H](O)[C@H]1O` [Ascorbyl-2-glucoside, 2-O-[…]-D-glucopyranosyl-L-Ascorbic acid]: the activation at 1000 µg/mL (Homo sapiens, Melanocyte, NHEM cells, 72 hours treatment, resveratrol 5 µg/ml, combination 5 µg/ml + 1 mg/ml, read-out: expression ratio compared to control for the gene AZGP1) worked out at 3%. Moreover, the “down-regulation of AZGP1” value (compared to untreated cells, NEHM cells, resveratrol 5 micrograms/ml, combination 5 microg/ml + 1mg/ml) was “no significant modulation”.

(Values after patent EP2522328A1, “Use of resveratrol and ascorbyl-2-glucoside” (DSM IP Assets B.V., priority 2011, dated 2012).)
